# From PMC9974506 (Proceedings of the National Academy of Sciences of the …, 2023)
# Biological target: T1, BRTNaC1 (broad-range thermal receptor 1) (Scolopendra mutilans, UniProt A0ABF7PQ77)
# T1 sequence (A0ABF7PQ77 1-431): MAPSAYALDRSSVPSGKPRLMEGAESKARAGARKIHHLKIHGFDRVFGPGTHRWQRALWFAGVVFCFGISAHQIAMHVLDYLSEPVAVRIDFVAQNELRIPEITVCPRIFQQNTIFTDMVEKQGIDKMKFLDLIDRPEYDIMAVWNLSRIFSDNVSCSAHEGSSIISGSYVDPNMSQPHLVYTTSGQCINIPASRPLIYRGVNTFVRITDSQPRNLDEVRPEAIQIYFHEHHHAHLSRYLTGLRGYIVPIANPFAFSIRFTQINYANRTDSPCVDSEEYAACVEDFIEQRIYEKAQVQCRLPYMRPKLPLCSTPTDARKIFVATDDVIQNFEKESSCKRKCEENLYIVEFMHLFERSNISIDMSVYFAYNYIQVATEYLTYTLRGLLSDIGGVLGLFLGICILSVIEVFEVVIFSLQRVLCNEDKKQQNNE
# Assay: patch clamp, transfected HEK293 cells, heat-activated current, Hill fit
# Type: cell-based
structure (smiles),measurement,value
C[C@]12CC[C@H]3[C@@H](CCC4=CC(=O)CC[C@@]43C)[C@@H]1CC[C@@H]2O [testosterone],IC50,3.8 ± 1.1 µM
